Paper PMC12030059, “Mechanistic Advances in the Therapeutic Application of Bixin for Lung Inflammation In Vitro and In Vivo” (Pharmaceuticals, 2025)

How the values were obtained:
Format in all cases: cell-based
[1] = tested on: F-actin in RAW 264.7 cells; assay: F-actin polymerization assay; conditions: 200 μM, alone and in the presence of 5% CSE
Experimental: RAW 264.7 cells were seeded in a 24-well plate (2.5 × 10^5 cells/well) and stimulated as previously described. After reaching 70% confluence, cells were blocked with 5% (w/v) BSA for 1 h and washed three times in PBS-Tween 20 (0.1% (v/v)). The supernatants were replaced with ActinRed (ThermoFisher Scientific, Waltham, MA, USA) for 30 min, followed by washing and incubation with DAPI for 5 min. After the final wash, DMEM FluoroBrite was added, and fluorescence was analyzed using the EVOS inverted microscope (ThermoFisher Scientific, Waltham, MA, USA).

[2] = tested on: RAW 264.7 cells; assay: ROS scavenger activity assay (NBT), LPS-induced; conditions: for ROS production induced by LPS: LPS 10 μg/mL, 12.5–200 μM, effect starting from 100 µM
Experimental: ROS levels were determined using the NBT method. RAW 264.7 cells were incubated for 1 h with 10 μg/mL LPS and different concentrations of bixin or potassium bixinate (0–200 μM) to evaluate their ability to intercept superoxide anions induced by LPS. After incubation, a 10% (w/v) NBT solution was added to each well and incubated for 1 h at 37 °C. Cellular membranes were permeabilized with 2 M KOH, and the resulting formazan was solubilized in DMSO. Optical density (OD) was measured at 630 nm using a Varioskan LUX spectrophotometer (ThermoFisher Scientific, Waltham, MA, USA).

[3] = tested on: ICAM-1; assay: Western blotting, ICAM-1 expression; conditions: RAW 264.7, 200 μM following CSE 5% exposure
Experimental: (§1) The RAW 264.7 macrophage cell lines were cultured in DMEM supplemented with 10% (v/v) FBS, pH 7.2, at 37 °C in a humidified atmosphere with 5% CO2. RAW 264.7 cells were plated in a 24-well plate (3.5 × 10^5 cells/well) in DMEM with 1% (v/v) FBS and left overnight to adhere. […]
(§2) Cells were lysed in RIPA buffer containing […]™ Protease Inhibitor and 1 mM sodium orthovanadate. Samples were then analyzed using the bicinchoninic acid (BCA) method (BCA Protein Assay Kit). Standard curves with known albumin concentrations (0–2 mg/mL) were used. The working solution was prepared according to the manufacturer’s instructions. For protein quantification, 10 μL of the sample was mixed with 100 μL of the working solution, and the same procedure was performed for each point on the standard curve in a 96-well plate. […] Absorbance was read at 565 nm using a Varioskan LUX spectrophotometer (ThermoFisher Scientific, Waltham, MA, USA).
(§3) Cell lysates (10–20 μg of protein) were separated by SDS-PAGE (sodium dodecyl sulfate polyacrylamide gel for electrophoresis) (8 or 12% polyacrylamide) and transferred (25 V, 1.0 A, 30 min—Trans-Blot Turbo Transfer System, Bio-Rad—São Paulo, Brazil) to a PVDF membrane. […] Densitometry was quantified using ImageJ software v. […] Results are expressed as densitometric values for each protein normalized to β-actin.

[4] = tested on: HDAC6; assay: Western blotting, HDAC6 expression; conditions: RAW 264.7, increase by CSE 5%
Experimental: The RAW 264.7 macrophage cell lines were cultured in DMEM supplemented with 10% (v/v) FBS, pH 7.2, at 37 °C in a humidified atmosphere with 5% CO2. RAW 264.7 cells were plated in a 24-well plate (3.5 × 10^5 cells/well) in DMEM with 1% (v/v) FBS and left overnight to adhere. […] After incubation, the medium was removed, and a 100 μM solution of bixin or potassium bixinate (diluted in DMEM; bixin was first prepared as a stock solution in DMSO) was added for an additional 1 h.
as §2, with “Standard curves with known albumin concentrations (0–2 mg/mL) were used. The working solution was prepared according to the manufacturer’s instructions.” left out
as §3

[5] = tested on: p-p65 NF-κB in RAW 264.7 cells; assay: Immunocytochemistry for p-p65 nuclear translocation; conditions: for nuclear p-p65 (green fluorescence colocalized with DAPI), compound alone: 200 μM, no stimulus; for p-p65 NF-κB nuclear translocation in cells stimulated with CSE: 5% CSE then compound 200 μM
Experimental: RAW 264.7 cells were seeded in a 24-well plate (2.5 × 10^5 cells/well) and stimulated as previously described. After reaching 70% confluence, cells were blocked with 5% (w/v) BSA for 1 h, then washed three times in PBS-Tween 20 (0.1% (v/v)). The supernatants were replaced with a solution containing the primary antibody against p-p65 (#3033-rabbit-1:500) (Cell Signaling Technology, Danvers, MA, USA) diluted in PBS-T with 1% (w/v) BSA and incubated overnight. After incubation, cells were incubated for 1 h with a secondary antibody conjugated to Alexa Fluor-488 (1:1000; ThermoFisher Scientific, Waltham, MA, USA). Cells were then washed three times with PBS-T and incubated with DAPI for 5 min. After the final wash, DMEM FluoroBrite was added, and fluorescence was analyzed using the EVOS inverted microscope (ThermoFisher Scientific, Waltham, MA, USA). Images were captured at 20× magnification from at least 10 fields for each experimental condition, and fluorescence intensity was quantified.

[6] = tested on: RAW 264.7 macrophages; assay: MTT cell viability assay; conditions: 12.5 to 200 μM, 3 h of exposure
Experimental: RAW 264.7 cells were plated (5 × 10^4 cells/well) in a 96-well plate with DMEM and 10% FBS. When cells reached 90% confluence, the 10% (v/v) FBS DMEM was discarded and replaced with the stimuli. […] The metabolism of MTT by the cells was monitored by the formation of insoluble salts, which were then dissolved in isopropyl alcohol. Absorbance was read at 570 nm using a Varioskan LUX (ThermoFisher Scientific, Waltham, MA, USA). […] Cell viability was normalized in all groups by the control (1% (v/v) FBS DMEM), with 10% (v/v) FBS in DMEM used as the positive growth control.

[7] = tested on: NOS2; assay: Western blotting, NOS2 expression; conditions: RAW 264.7, 200 μM, CSE 5%
Experimental: as §1, §2, §3

| Compound | F-actin labeling (MFI) [1] | ROS production induced by LPS [2] | ICAM-1 expression (ICAM-1/β-actin) [3] | HDAC6 expression (HDAC6/β-actin) [4] | nuclear p-p65 (green fluorescence colocalized with DAPI), compound alone [5] | p-p65 NF-κB nuclear translocation in cells stimulated with CSE [5] | cell viability [6] | NOS2 expression (NOS2/β-actin) [7] | potency to intercept ROS formation relative to bixin ([2]; in vitro, KBx versus bixin) |
| --- | --- | --- | --- | --- | --- | --- | --- | --- | --- |
| COC(=O)/C=C/C(C)=C\C=C\C(C)=C\C=C\C=C(C)\C=C\C=C(C)\C=C\C(=O)O [HBx, (2E,4E,6E,8E,10E,12E,14E,16Z,18E)-20-methoxy-4,8,13,17-tetramethyl-20-oxoicosa-2,4,6,8,10,12,14,16,18-nonaenoic acid] | maintained F-actin at control levels | dose-dependent reduction in ROS production | reduced ICAM-1 expression | effective in reducing it | do not display a significant increase in green fluorescence intensity | prevent p-p65 NF-κB nuclear translocation | did not affect cell viability | reduced it |  |
| potassium bixinate [KBx] | maintained F-actin at control levels | dose-dependent reduction in ROS production | reduced ICAM-1 expression | effective in reducing it | do not display a significant increase in green fluorescence intensity | prevent p-p65 NF-κB nuclear translocation | did not affect cell viability | reduced it | three-fold more potency |
